Results from patent US20170246130A1, “4-HYDROXYBENZOHYDARZIDE-A NEW CLASS OF ANGIOGENIC ENZYME THYMIDINE PHOSPHORYLASE INHIBITORS” (priority 2016, published 2017).
“Also recorded” adds a separate entry of the source.

Experiments:
[1] = tested on: prostate cancer line (PC3); experiment: MTT anti-proliferative assay, PC3 cells; type: cell-based; settings: for IC50 ± SD (μM), PC3 Cell Line: PC3 cells; for IC50: Homo sapiens, PC-3, PC3 cells, read-out: IC50 ± SD (μM), PC3 Cell Line; for inhibition of the proliferation of PC3 cancer cells (in words): in comparison of doxorubucin
Experimental: (§1) Compounds found to be active in inhibiting thymidine phosphorylase were then subjected to MTT proliferation assay. Rapid proliferation is the property inherent to cancerous/tumor cells. This assay was carried out to study the effect of these compounds on proliferation of various cell lines. The cell lines which we targeted were mouse fibroblast cell line (3T3), and prostate cancer line (PC3).
(§2) Anti-proliferative activity of active compounds was evaluated by using the standard MTT (3-[4,5-dimethylthiazole-2-yl]-2,5-diphenyl-tetrazolium bromide) colorimetric assay in 96-well plate (Dimas et al., 1998).
(§3) It is a colorimetric assay that measures the reduction of MTT, by mitochondrial enzyme i.e. succinate dehydrogenase. The MTT enters into the mitochondria of cell, where it is reduced to an insoluble formazan salt (FIG. 8). The extent of MTT reduction was measured at 540 nm. As reduction of MTT can only occur in metabolically active cells, the level of activity is actually a measure of the viability of the cells (Vega-Avila and Pugsley, 2011).
(§4) Mouse fibroblast cell line 3T3 was cultured in DMEM, supplemented with 5% of FBS, 100 IU/mL of penicillin and 100 μg/mL of streptomycin, and kept at 37° C. in 5% CO2 incubator. For the preparation of cell culture, 100 μL/well of cell solution (5×10^4 cells/mL) was added into 96-well plate. The plate was incubated for overnight, and fresh medium was added after the removal of old medium. The test compounds were also added in different concentrations into the plate and plate was again incubated for 48 h. After the completion of this incubation period, 200 μL MTT (0.5 mg/mL) was added and plate was again incubated for 4 h, after this final incubation 100 μL of DMSO was added to each well. The level of MTT reduction to formazan was evaluated by change in absorbance at 540 nm using a micro plate reader (Spectra Max plus, Molecular Devices, CA, USA).

[2] = tested on: mouse fibroblast cell line (3T3); experiment: MTT anti-proliferative assay, 3T3 cells; type: cell-based; settings: for inhibition of the proliferation of 3T3 cells (in words): in comparison to cyclohexamide; for IC50 ± SD (μM), 3T3 Cell Line: 48 h
Experimental: as §1, §2, §3, §4

[3] = biological target: T1, thymidine phosphorylase (E. coli) (Escherichia coli, UniProt P07650); experiment: In-vitro thymidine phosphorylase inhibition assay (spectrophotometric); type: biochemical; settings: recombinant E. coli TP, thymidine substrate, pH 7.0, 30° C., 290 nm; read-out: IC50 (μM ± S.E.M.), thymidine phosphorylase inhibition
T1 construct: purchased Sigma Aldrich, USA; host or cells: Escherichia coli
T1 sequence (P07650 whole entry): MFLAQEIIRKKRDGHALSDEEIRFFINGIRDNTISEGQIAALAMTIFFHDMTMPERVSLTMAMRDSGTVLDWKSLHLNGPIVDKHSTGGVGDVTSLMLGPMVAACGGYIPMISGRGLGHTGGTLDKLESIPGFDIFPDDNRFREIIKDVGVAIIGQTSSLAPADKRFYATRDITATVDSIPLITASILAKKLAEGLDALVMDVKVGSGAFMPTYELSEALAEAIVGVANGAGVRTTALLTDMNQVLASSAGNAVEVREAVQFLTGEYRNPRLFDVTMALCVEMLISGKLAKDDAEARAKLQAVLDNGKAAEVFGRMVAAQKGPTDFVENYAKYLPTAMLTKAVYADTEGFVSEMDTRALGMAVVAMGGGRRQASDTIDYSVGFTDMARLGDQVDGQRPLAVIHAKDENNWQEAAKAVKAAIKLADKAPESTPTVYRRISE
Experimental: In vitro studies on thymidine phosphorylase were carried out in 96-well microtiter plate using Spectra Max-340 and Spectra Max-384 spectrophotometers (Molecular Devices, CA, USA). Deionized water used for buffer preparation was collected by Simplicity Water Purification System (Milipore).
Since human TP is not commercially available, we used commercially available recombinant E. coli TP (expressed in Escherichia coli) enzyme. Primary sequence of TP is mostly conserved throughout the evolution as mammalian TP share 39% sequence similarity with TP of E. coli. The mammalian enzyme also shared 65-70% similarity with the active site residues of E. coli TP enzyme (Bronckaers et al., 2009). Assay for thymidine phosphorylase inhibition was performed spectrophotometrically, following method of Bera et al. with some modifications (Bera et al., 2013).
The reaction catalyzed by thymidine phosphorylase involves reversible phosphorolysis of thymidine (FIG. 1), to thymine and 2-deoxyribose-1-phosphate (Bronckaers et al., 2009).
Reaction mixture contained 150 μL of potassium phosphate buffer (pH 7.0, 50 mM), 20 µL of enzyme (0.058 U/well) and 10 μL of test compound (0.5 mM in dimethylsulfoxide). The reaction mixture was incubated for 10 min at 30° C.
The enzyme inhibitory activities were calculated using the following formula:
Percent Inhibition=100−(O.D. of test/O.D. of control)×100
Where test is the enzyme activity with sample, and control is the enzyme activity without sample, and O.D. is optical density.
The IC50 of the compounds was calculated using EZ-Fit Enzyme Kinetic Program (Perrella Scientific Inc., Amhrest, U.S.A.).

[4] = biological target: T1, thymidine phosphorylase (E. coli); experiment: Kinetic (mechanistic) studies on thymidine phosphorylase; type: biochemical; settings: for Inhibition Type: Lineweaver-Burk plot; for Inhibition Type / Ki: thymidine as variable substrate; for apparent Vmax (Lineweaver-burk plot) / apparent km of the enzyme (Lineweaver-burk plot): absence and different concentrations of compound; for Ki: secondary re-plot, confirmed by Dixon plot, read-out: Ki (μM ± S.E.M.), dissociation constant
Experimental: These studies disclose the mechanism of inhibitor binding to enzyme. Kinetic studies were carried out using thymidine as variable substrate. […] This was deduced from Lineweaver Burk plot. This compound therefore, interacted either with the amino acids of hydrophobic pocket of the enzyme or at allosteric site of the enzyme. […] Uncompetitive inhibitor causes decrease in both Km and Vmax values of the enzyme (Figure-6). […] Ki values were determined by secondary re-plot, and confirmed by Dixon plot.
Kinetic studies were carried out to find the mechanism of inhibitor action. Inhibitor could bind with enzyme in multiple ways such as in competitive, non-competitive, mixed or uncompetitive way. In kinetic assay, the enzyme (0.058 U/200 μL) was incubated with different concentrations of inhibitor for 10 min at 30° C. The reactions was then initiated by adding different concentrations (0.1875 mM-1.5 mM) of substrate (thymidine) and the resulting degradation of thymidine was measured continuously at 290 nm for 10 min on a ELISA plate reader. Every experiment was run in triplicate.
Line-weaver Burk plot was plotted to determine the type of inhibition. This was accomplished by plotting the reciprocal of the rate of reaction against the reciprocal of the substrate concentration. Ki values were determined by secondary re-plot, and reconfirmed by Dixon plot. The Ki was determined by non-linear regression equation.

SMILES | IC50 ± SD (μM), PC3 Cell Line [1] | inhibition of the proliferation of 3T3 cells (in words) [2] | IC50 [3] [µM] | Inhibition Type [4] | apparent Vmax (Lineweaver-burk plot) [4] | apparent km of the enzyme (Lineweaver-burk plot) [4] | Ki [4] [µM] | IC50 ± SD (μM), 3T3 Cell Line ([2]; 3T3 cells) | IC50 [1] [µM] | inhibition of the proliferation of PC3 cancer cells (in words) [1] | IC50 ([2]; Mus musculus, NIH3T3, 48 h, 3T3 cells, read-out: IC50 ± SD (μM), 3T3 Cell Line) [µM]
C/C(=N\NC(=O)c1ccc(O)cc1)c1c(O)cccc1O [Compound 27, 4-Hydroxy-N′-[(E)-1-(2,6-dihydroxyphenyl)ethylidene]benzohydrazide] | Inactive | significantly inhibit | 176.9 ± 1.6 | un-competitive; also recorded: Uncompetitive | decreased | remains unaffected | 168 ± 0.003 | – | – | – | –
Oc1nc(O)c2cc[nH]c2n1 [7-Deazaxanthine, 2,4-Dihydroxypyrrolo[2,3-d]pyrimidine, reference compound] | – | – | – | Non-Competitive | – | – | – | – | – | – | –
O=C(N/N=C/c1ccc(Cl)cc1)c1ccc(O)cc1 [Compound 12, 4-Hydroxy-N′-[(E)-(4-chlorophenyl)methylidene]benzohydrazide] | Inactive | – | 159 ± 0.4 | un-competitive; also recorded: Uncompetitive | – | – | 138 ± 0.009 | Inactive | – | – | –
COc1ccc(/C=N/NC(=O)c2ccc(O)cc2)cc1OC [Compound 11, 4-Hydroxy-N′-[(E)-(3,4-dimethoxyphenyl)methylidene]benzohydrazide] | Inactive | – | 204 ± 3 | – | – | – | – | Inactive | – | – | –
COc1ccccc1/C=N/NC(=O)c1ccc(O)cc1 [Compound 9, 4-Hydroxy-N′-[(E)-(2-methoxyphenyl)methylidene]benzohydrazide] | Inactive | – | 183.7 ± 1.5 | – | – | – | – | Inactive | – | – | –
CCOc1cccc(/C=N/NC(=O)c2ccc(O)cc2)c1O [Compound 21, 4-Hydroxy-N′-[(E)-(3-ethoxy-2-hydroxyphenyl)methylidene]benzohydrazide] | – | significantly inhibit | 190.3 ± 0.4 | – | – | – | – | – | 6.54 ± 0.278 | significantly inhibit | –
O=C(N/N=C/c1ccc(O)c(O)c1)c1ccc(O)cc1 [Compound 5, 4-Hydroxy-N′-[(E)-(3,4-dihydroxyphenyl)methylidene]benzohydrazide] | Inactive | significantly inhibit | 229.5 ± 0.4 | un-competitive; also recorded: Uncompetitive | – | – | 176.65 ± 0.006 | – | – | – | –
O=C(N/N=C/c1cc(Br)cc(Br)c1O)c1ccc(O)cc1 [Compound 24, 4-Hydroxy-N′-[(E)-(3,5-dibromo-2-hydroxyphenyl)methylidene]benzohydrazide] | – | significantly inhibit | 6.8 ± 0.7 | Non-Competitive | decreased | remains unaffected | 1.75 ± 0.009 | – | 8.34 ± 0.965 | significantly inhibit | –
O=C(N/N=C/c1cccc(O)c1)c1ccc(O)cc1 [Compound 2, 4-Hydroxy-N′-[(E)-(3-hydroxyphenyl)methylidene]benzohydrazide] | Inactive | – | 180 ± 3 | – | – | – | – | Inactive | – | – | –
CC/C(=N\NC(=O)c1ccc(O)cc1)c1cc(O)ccc1O [Compound 30, 4-Hydroxy-N′-[(E)-1-(2,5-dihydroxyphenyl)propylidene]benzohydrazide] | Inactive | significantly inhibit | 173 ± 1.4 | un-competitive; also recorded: Uncompetitive | – | – | 159.05 ± 0.002 | – | – | – | –
O=C(N/N=C/c1ccc(Br)cc1)c1ccc(O)cc1 [Compound 14, 4-Hydroxy-N′-[(E)-(4-bromophenyl)methylidene]benzohydrazide] | Inactive | – | 158 ± 1 | un-competitive; also recorded: Uncompetitive | – | – | 80.5 ± 0.002 | Inactive | – | – | –
COc1ccc(/C=N/NC(=O)c2ccc(O)cc2)cc1 [Compound 10, 4-Hydroxy-N′-[(E)-(4-methoxyphenyl)methylidene]benzohydrazide] | Inactive | – | 186 ± 2 | – | – | – | – | Inactive | – | – | –
C/C(=N\NC(=O)c1ccc(O)cc1)c1cc(O)ccc1O [Compound 28, 4-Hydroxy-N′-[(E)-1-(2,5-dihydroxyphenyl)ethylidene]benzohydrazide] | Inactive | significantly inhibit | 183.4 ± 0.9 | – | – | – | – | – | – | – | –
COc1cccc(/C(C)=N/NC(=O)c2ccc(O)cc2)c1O [Compound 29, 4-Hydroxy-N′-[(E)-1-(2-hydroxy-3-methoxyphenyl)ethylidene]benzohydrazide] | – | significantly inhibit | 174.2 ± 1 | – | – | – | – | – | 8.48 ± 0.592 | significantly inhibit | 18.6 ± 0.6
O=C(N/N=C/c1ccc(O)cc1)c1ccc(O)cc1 [Compound 3, 4-Hydroxy-N′-[(E)-(4-hydroxyphenyl)methylidene]benzohydrazide] | Inactive | – | 199.4 ± 0.4 | – | – | – | – | Inactive | – | – | –
O=C(N/N=C/c1cc(O)c(O)cc1O)c1ccc(O)cc1 [Compound 6, 4-Hydroxy-N′-[(E)-(2,4,5-trihydroxyphenyl)methylidene]benzohydrazide] | Inactive | significantly inhibit | 208 ± 0.9 | – | – | – | – | – | – | – | –
